Measurements: article PMC10824666 (Nature Cancer, 2023)
Like-named read-outs stand apart in the source and are kept apart here. One block for each molecule: values may come before it.

Key:
Assay in all cases: biochemical
Set-up in all cases: Eurofins DiscoverX kinase panel, competitive binding assay at 1 uM, percent of DMSO control
Settings in all cases: competitive binding, percent of DMSO control
ALK = ALK (Homo sapiens, UniProt Q9UM73)
Procedure, shortened: (§1)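 Single-point profiling at 1 µM compound in a competition-binding format against 96 kinases, read out as POC relative to control; n = 1.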

EPHA2 = EPHA2 (Homo sapiens, UniProt P29317)
Procedure, shortened: as §1

YSK4 = molecular target: T1, YSK4 (Homo sapiens, UniProt Q56UN5)
T1 construct: gene MAP3K19
T1 sequence (Q56UN5 1-1328): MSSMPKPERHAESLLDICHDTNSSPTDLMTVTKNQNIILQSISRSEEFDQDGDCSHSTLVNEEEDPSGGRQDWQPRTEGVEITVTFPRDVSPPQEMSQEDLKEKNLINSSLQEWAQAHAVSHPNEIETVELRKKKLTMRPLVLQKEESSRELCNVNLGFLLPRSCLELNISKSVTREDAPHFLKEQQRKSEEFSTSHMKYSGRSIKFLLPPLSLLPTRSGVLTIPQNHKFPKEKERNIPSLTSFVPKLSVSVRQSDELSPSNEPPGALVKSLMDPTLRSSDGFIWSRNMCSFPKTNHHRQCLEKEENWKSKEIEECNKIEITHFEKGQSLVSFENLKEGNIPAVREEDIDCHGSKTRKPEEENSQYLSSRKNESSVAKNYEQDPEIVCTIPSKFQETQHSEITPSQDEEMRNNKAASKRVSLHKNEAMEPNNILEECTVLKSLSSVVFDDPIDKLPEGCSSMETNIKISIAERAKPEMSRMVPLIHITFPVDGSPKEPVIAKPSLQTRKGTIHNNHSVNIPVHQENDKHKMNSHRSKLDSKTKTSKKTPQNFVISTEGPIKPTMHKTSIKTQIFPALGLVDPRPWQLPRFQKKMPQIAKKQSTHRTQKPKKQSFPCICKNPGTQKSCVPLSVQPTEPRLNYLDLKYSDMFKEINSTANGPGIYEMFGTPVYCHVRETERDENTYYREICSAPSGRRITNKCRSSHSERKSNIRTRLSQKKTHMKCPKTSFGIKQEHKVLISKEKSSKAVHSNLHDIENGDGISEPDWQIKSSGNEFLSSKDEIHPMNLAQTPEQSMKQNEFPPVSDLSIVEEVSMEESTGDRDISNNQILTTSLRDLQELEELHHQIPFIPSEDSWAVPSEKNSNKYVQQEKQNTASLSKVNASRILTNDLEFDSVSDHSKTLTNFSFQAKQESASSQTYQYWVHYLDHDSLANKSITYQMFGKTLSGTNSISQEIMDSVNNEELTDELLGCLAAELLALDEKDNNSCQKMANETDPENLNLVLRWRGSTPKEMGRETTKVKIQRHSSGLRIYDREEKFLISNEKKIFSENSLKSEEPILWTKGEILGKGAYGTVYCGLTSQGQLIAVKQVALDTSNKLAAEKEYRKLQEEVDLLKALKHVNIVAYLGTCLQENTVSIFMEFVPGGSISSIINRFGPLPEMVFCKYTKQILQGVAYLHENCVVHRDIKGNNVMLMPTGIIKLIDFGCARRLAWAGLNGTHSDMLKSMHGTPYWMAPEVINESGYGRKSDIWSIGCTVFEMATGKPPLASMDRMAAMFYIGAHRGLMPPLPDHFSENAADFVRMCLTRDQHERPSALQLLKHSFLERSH
Procedure, shortened: as §1

[1] = read-out: Kinome Profiling performed by Eurofins DiscoverX / AM-0277, 1.0 µM / POC
[2] = read-out: Kinome Profiling performed by Eurofins DiscoverX / AM-1882, 1.0 µM / POC
[3] = read-out: Kinome Profiling performed by Eurofins DiscoverX / AM-5308, 1.0 µM / POC

EPHA2, sequence (P29317 whole entry): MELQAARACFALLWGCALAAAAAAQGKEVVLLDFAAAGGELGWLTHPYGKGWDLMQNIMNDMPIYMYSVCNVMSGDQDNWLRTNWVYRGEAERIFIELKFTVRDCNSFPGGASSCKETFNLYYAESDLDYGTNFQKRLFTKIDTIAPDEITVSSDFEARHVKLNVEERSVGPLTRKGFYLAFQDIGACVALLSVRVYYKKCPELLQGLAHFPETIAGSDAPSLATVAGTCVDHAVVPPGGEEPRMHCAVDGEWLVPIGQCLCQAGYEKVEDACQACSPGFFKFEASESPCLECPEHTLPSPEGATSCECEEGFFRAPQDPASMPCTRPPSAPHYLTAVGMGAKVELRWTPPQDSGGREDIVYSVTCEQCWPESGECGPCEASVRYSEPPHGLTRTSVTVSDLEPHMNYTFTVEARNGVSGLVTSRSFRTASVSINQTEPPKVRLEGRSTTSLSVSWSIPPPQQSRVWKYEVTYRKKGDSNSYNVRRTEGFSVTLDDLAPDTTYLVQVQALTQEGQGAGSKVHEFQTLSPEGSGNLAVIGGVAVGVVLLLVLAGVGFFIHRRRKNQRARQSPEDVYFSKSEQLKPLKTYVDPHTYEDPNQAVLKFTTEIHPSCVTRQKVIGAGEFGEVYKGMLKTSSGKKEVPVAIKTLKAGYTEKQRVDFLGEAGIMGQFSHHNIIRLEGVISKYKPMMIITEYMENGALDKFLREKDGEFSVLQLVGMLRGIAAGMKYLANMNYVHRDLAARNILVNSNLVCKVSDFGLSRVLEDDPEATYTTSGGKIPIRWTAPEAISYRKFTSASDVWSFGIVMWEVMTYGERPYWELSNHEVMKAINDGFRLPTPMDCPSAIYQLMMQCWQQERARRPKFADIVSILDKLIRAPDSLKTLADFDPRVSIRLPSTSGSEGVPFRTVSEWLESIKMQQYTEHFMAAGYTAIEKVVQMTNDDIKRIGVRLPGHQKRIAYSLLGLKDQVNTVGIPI
ALK, sequence (Q9UM73 whole entry): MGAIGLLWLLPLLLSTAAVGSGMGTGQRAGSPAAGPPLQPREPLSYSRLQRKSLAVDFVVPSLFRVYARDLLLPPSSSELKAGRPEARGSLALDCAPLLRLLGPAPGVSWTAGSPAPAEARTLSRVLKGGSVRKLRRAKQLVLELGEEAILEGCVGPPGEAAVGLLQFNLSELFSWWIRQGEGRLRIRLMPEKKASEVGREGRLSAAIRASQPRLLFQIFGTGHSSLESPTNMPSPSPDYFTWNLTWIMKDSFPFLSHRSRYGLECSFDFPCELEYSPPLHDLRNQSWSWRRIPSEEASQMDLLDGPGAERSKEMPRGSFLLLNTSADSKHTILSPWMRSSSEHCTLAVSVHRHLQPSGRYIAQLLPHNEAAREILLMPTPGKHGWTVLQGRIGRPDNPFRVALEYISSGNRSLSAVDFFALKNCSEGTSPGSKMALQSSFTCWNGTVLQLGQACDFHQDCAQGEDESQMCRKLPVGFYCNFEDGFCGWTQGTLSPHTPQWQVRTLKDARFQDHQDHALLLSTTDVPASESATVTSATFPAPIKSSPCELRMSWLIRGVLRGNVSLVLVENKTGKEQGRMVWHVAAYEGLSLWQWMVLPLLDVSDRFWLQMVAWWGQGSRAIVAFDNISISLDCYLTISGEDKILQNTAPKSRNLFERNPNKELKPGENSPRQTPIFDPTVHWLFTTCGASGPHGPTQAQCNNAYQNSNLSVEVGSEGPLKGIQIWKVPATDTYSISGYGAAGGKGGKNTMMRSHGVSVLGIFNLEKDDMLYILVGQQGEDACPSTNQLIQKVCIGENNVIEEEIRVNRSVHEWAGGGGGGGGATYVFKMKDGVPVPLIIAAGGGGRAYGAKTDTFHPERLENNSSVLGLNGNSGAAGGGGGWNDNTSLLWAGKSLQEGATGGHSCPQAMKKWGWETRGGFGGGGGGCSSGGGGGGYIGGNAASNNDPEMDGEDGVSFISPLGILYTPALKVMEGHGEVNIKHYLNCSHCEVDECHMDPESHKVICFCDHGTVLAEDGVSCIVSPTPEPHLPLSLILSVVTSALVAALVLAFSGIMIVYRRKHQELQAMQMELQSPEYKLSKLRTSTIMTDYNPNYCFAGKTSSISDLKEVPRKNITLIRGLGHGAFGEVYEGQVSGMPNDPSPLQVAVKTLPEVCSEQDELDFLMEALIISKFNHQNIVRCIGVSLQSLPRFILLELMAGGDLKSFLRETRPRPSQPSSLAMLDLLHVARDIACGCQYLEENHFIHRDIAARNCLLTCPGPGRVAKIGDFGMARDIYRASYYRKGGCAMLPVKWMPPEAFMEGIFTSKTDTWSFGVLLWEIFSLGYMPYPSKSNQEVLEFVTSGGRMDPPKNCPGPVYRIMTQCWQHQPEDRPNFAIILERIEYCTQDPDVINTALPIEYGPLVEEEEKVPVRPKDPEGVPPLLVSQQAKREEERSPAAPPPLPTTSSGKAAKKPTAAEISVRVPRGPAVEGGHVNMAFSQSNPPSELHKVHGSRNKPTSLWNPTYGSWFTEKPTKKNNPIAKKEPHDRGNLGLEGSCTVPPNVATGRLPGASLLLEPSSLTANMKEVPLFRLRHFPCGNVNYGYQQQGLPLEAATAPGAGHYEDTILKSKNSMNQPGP

remaining activity at 1 µM (ALK; [1]): 100% | remaining activity at 1 µM (EPHA2; [1]): 80% | remaining activity at 1 µM (YSK4; [1]): 100%
SMILES: CC(C)(CO)Nc1ccc(C(=O)Nc2cccc(S(=O)(=O)C3CCCC3)c2)c(N2CCC3(CC2)CC3)n1 [AM-0277]

remaining activity at 1 µM (ALK; [2]): 81% | remaining activity at 1 µM (EPHA2; [2]): 99.5% | remaining activity at 1 µM (YSK4; [2]): 87%
SMILES: CC(C)(C)NS(=O)(=O)c1cccc(NC(=O)c2ccc(S(=O)(=O)NC(C)(C)C)cc2N2CCC3(CC2)CC3)c1 [AM-1882]

remaining activity at 1 µM (ALK; [3]): 89% | remaining activity at 1 µM (EPHA2; [3]): 92.5% | remaining activity at 1 µM (YSK4; [3]): 75.5%
SMILES: C[C@@H]1CN(c2cccc(NC(=O)c3ccc(NS(=O)(=O)CCO)cc3N3CCC4(CC3)CC4)n2)CCO1 [AM-5308]
